The record followed here is ChEMBL document CHEMBL1759886, “Biological evaluation of phenolic constituents from the trunk of Berberis koreana” (Bioorg Med Chem Lett, 2011).

One may read the IC50 as the concentration that inhibits the measured activity by half.

Molecules are shown by their SMILES.

Holding throughout (assay type): functional, cell-based
For assay [1], the system named is BV-2. Description: Antiinflammatory activity in mouse BV2 cells assessed as inhibition of lipopolysaccharide induced NO production.
Assay [2] relates to XF498. Nature of the assay: Anticancer activity against human XF498 cells by SRB assay.
The test system of assay [3] is SK-OV-3. Nature of the assay: Anticancer activity against human SKOV3 cells by SRB assay. (Sulforhodamine B stains cellular protein and so reports cell mass.)
Assay [4] concerns A549. Description: Anticancer activity against human A549 cells by SRB assay.
The subject of assay [5] is SK-MEL-2. Nature of the assay: Anticancer activity against human SK-MEL-2 cells by SRB assay.

For the molecule `COc1ccc(C[C@H]2CO[C@H](c3ccc(OC)c(OC)c3)[C@H]2CO)cc1OC`, the IC50 is 44.4 µM in assay [1]; 15.4 µM in assay [2]; 21.5 µM in assay [3]; 20.1 µM in assay [4]; 25.1 µM in assay [5].

In the case of `COc1cc([C@@H](O)[C@@H](CO)Oc2ccc(CCCO)cc2OC)ccc1O`, the IC50 in assay [1] is 58.5 µM; in assay [2], 26.6 µM; in assay [3], above 30 µM; in assay [4] it was above 30 µM; in assay [5], above 30 µM.

For `COc1cc(C[C@@H](CO)[C@](O)(CO)Cc2ccc(O)c(OC)c2)ccc1O`, the IC50 in assay [1] is 201 µM; in assay [2], 27.6 µM; in assay [3] it was above 30 µM; in assay [4], above 30 µM; in assay [5], above 30 µM.

Consider `COc1cc([C@@H]2c3c(cc(OC)c(O)c3OC)C[C@H](CO)[C@H]2CO)cc(OC)c1O`, for which the IC50 was 113 µM in assay [1]; 26.5 µM in assay [2]; above 30 µM in assay [3]; 21.2 µM in assay [4]; above 30 µM in assay [5].

With `COc1cc(C(=O)CCO)cc(OC)c1O`, the concentration for half-maximal inhibition (IC50) in assay [2] is 24.3 µM; in assay [3], above 30 µM; in assay [4], above 30 µM; in assay [5] it was above 30 µM.

Regarding `COc1ccc(CC(=O)O)cc1`, the IC50 in assay [2] was 28.1 µM; in assay [3], above 30 µM; in assay [4], above 30 µM; in assay [5], above 30 µM.

For `COc1cc([C@@H]2OC[C@@H]3[C@H]2CO[C@H]3c2cc(OC)c(O)c(OC)c2)cc(OC)c1O`, the IC50 is 13.5 µM in assay [1]; 8.82 µM in assay [2]; above 30 µM in assay [3]; above 30 µM in assay [4]; 14.5 µM in assay [5].

As for `COc1cc([C@H]2c3c(cc(OC)c(O)c3OC)C[C@@H](CO)[C@@H]2CO)cc(OC)c1O`, the IC50 in assay [1] was 69.1 µM; in assay [2], 7.14 µM; in assay [3] it was above 30 µM; in assay [4], above 30 µM; in assay [5] it was above 30 µM.

In the case of `COc1cc(C(=O)CCO)ccc1O`, the concentration for half-maximal inhibition (IC50) in assay [2] was 28.4 µM; in assay [3], above 30 µM; in assay [4], above 30 µM; in assay [5] it was above 30 µM.

For `COc1cc([C@@H]2OC[C@@H]3[C@H]2CO[C@H]3c2ccc(O[C@@H]3O[C@H](CO)[C@@H](O)[C@H](O)[C@H]3O)c(OC)c2)ccc1O`, the IC50 was 144 µM in assay [1]; 25.4 µM in assay [2]; above 30 µM in assay [3]; above 30 µM in assay [4]; above 30 µM in assay [5].

For `COc1cc(C[C@@H](CO)[C@H](CO)Cc2ccc(O)c(OC)c2)ccc1O` [(+)-SECOISOLARICIRESINOL], the IC50 is 87.6 µM in assay [1]; 18.8 µM in assay [2]; above 30 µM in assay [3]; above 30 µM in assay [4]; 21.5 µM in assay [5].

As for `COc1cc([C@@H]2c3cc(O)c(OC)cc3C[C@H](CO)[C@H]2CO)ccc1O` [(-)-ISOLARICIRESINOL], the IC50 in assay [1] is 152 µM; in assay [2], 22.8 µM; in assay [3], above 30 µM; in assay [4], 20.2 µM; in assay [5] it was 24.9 µM.

In the case of `COc1cc([C@@H]2OC[C@H]3[C@@H]2CO[C@H]3c2ccc(O)c(OC)c2)ccc1O` [(-)-PINORESINOL], the IC50 is 26.2 µM in assay [1]; 13.3 µM in assay [2]; above 30 µM in assay [3]; above 30 µM in assay [4]; 26.6 µM in assay [5].

With `COc1ccc([C@H](O)[C@@H](CO)Oc2c(OC)cc([C@@H]3Oc4c(OC)cc(CCCO)cc4[C@H]3CO)cc2OC)cc1OC` [BERBIKONOL], the IC50 is 90.9 µM in assay [1]; 19.3 µM in assay [2]; above 30 µM in assay [3]; above 30 µM in assay [4]; 27.3 µM in assay [5].

In the case of `COC(=O)[C@H](CO)c1cc(OC)c(O)c(OC)c1` [BERFUSSINOL], the IC50 in assay [2] was above 30 µM; in assay [3], above 30 µM; in assay [4], above 30 µM; in assay [5] it was 27.2 µM.

`COc1cc(/C=C/C=O)ccc1O` [CONIFERYL ALDEHYDE]: the half-inhibitory concentration (IC50) in assay [2] is above 30 µM; in assay [3], above 30 µM; in assay [4], 21.2 µM; in assay [5] it was above 30 µM.

Regarding `COc1cc([C@H]2Oc3c(OC)cc(CCCO)cc3[C@@H]2CO)ccc1O` [DIHYDRODEHYDRODICONIFERY ALCOHOL], the 50% inhibitory concentration (IC50) is 28.8 µM in assay [1]; 13.4 µM in assay [2]; above 30 µM in assay [3]; 22.4 µM in assay [4]; 23.3 µM in assay [5].

For the molecule `COc1cc([C@@H]2c3cc4c(cc3[C@@H](O[C@@H]3O[C@@H]5CO[C@@H](C)O[C@H]5[C@H](O)[C@H]3O)[C@H]3COC(=O)[C@H]23)OCO4)cc(OC)c1O` [ETOPOSIDE], in assay [3], the midpoint of inhibition, the IC50, lay at 1.81 µM.

With `COc1cc(C[C@H]2CO[C@H](c3ccc(O)c(OC)c3)[C@H]2CO)ccc1O` [LARICIRESINOL], the half-inhibitory concentration (IC50) is 51.8 µM in assay [1]; 11.7 µM in assay [2]; above 30 µM in assay [3]; 24.5 µM in assay [4]; above 30 µM in assay [5].

`COc1cc(C[C@H]2COC(=O)[C@@H]2Cc2ccc(O)c(OC)c2)ccc1O` [MATAIRESINOL]: the IC50 is 94.5 µM in assay [1]; 23.7 µM in assay [2]; above 30 µM in assay [3]; 23.8 µM in assay [4]; above 30 µM in assay [5].

For `CNC(=N)NCCC[C@H](N)C(=O)O` [TILARGININE], the IC50 in assay [1] is 17.1 µM.

In the case of `COc1cc(C(=O)O)ccc1O` [VANILLIC ACID], the IC50 in assay [2], in assay [3], in assay [4] and in assay [5] was above 30 µM throughout.
